Measurements published in patent US11773183B2, “MUC16 monoclonal antibody and uses thereof” (QUEST PHARMATECH INC., priority 2018, dated 2023).

Tested on: T3M4 wildtype (WT) cells
Test: Live/Dead cell cytotoxicity assay, T3M4 wildtype cells
Type: cell-based, human
Details: 24 h
Protocol: Materials and Methods. T3M4 wildtype (WT) and COSMC deleted (SimpleCells, SC) were treated with equal amounts of mAR 9.6 (5 μg/ml) and POCmAb (5 μg/ml) or with isotype matched (either mouse or human) control IgG antibody for 24 h. For the comparison of effect of antibodies in inducing cell death, T3M4 WT cells were treated with Sapitinib (an ErbB receptor tyrosine kinase inhibitor, 5.4 μM) and LY294002 (PI3K/Akt inhibitor, 11.3 μM) alone or in combination with mAR9.6 (5 μg/ml) and POCmAb (5 μg/ml) for 24 h. The cells were washed well with cell-culture grade PBS. 20 μl ethidium homodimer-1 (EthD-1, 2 mM) was dissolved in 10 ml PBS. To this solution, 5 μl of calcein acetoxymethyl ester (calcein-AM, 4 mM) was added. 150 μl of this combined reagent was added to the cells grown on coverslip and incubated for 30-45 minutes. The numbers of live and dead cells were detected with Zeiss LSM 710™ confocal laser scanning microscope (Carl Zeiss, Inc., Thornwood, NY, USA) at Confocal Laser Scanning Fluorescence Microscope Core Facility, UNMC. The ratio of dead cells to total cells was calculated for quantitative comparisons. Unpaired Student's t-test was performed to calculate the statistical significance between the antibodies treated T3M4 WT and T3M4 SC cells (n=4) (p<0.05 considered statistically significant). Two way analysis of variance (ANOVA) was performed to calculate the statistical significance between the inhibitors and antibody treated T3M4 cells (n=4) (p<0.05 considered statistically significant).

[1] = inhibitor (Sapitinib 5.4 μM, LY294002 11.3 μM) with human IgG isotype control
[2] = inhibitor (Sapitinib 5.4 μM, LY294002 11.3 μM) with mouse IgG isotype control

Compound	cell death (ratio of dead cells to total cells) [1]	cell death (ratio of dead cells to total cells) [2]
O=c1cc(N2CCOCC2)oc2c(-c3ccccc3)cccc12 [LY294002]	about 15%	about 15%
CNC(=O)CN1CCC(Oc2cc3c(Nc4cccc(Cl)c4F)ncnc3cc2OC)CC1 [Sapitinib]	about 17%	about 17%
